For series [1], the system named is CT26CL25, mouse colon carcinoma. Nature of the series: MTT cell viability, CT26CL25. In kind it is cell-based. The following applies: 48 h. The procedure:
(§1) Both melanoma and colon cancer are tumor types tightly connected with inflammation, while the expression of COX-2 in the selected cell lines was highly variable. Since a lot of discrepancies were found in the literature concerning the expression of this enzyme[5],[48]–[53], both COX-1 and COX-2 expression was analyzed by Western blot. […] The cells were treated with a wide range of doses of 4a–c, 5, and 6 for 48 h and cell viability was determined by MTT (3-(4,5-dimethylthiazol-2-yl)-2,5-diphenyltetrazolium bromide) and CV (crystal violet) assays. The obtained IC50 values were similar for both assays (Table 1).
(§2) Reagents were obtained from Sigma (St. Louis, MO) unless indicated otherwise. Annexin V - FITC (AnnV) was acquired from Biotium (Hayward, CA) and Apostat from R&D (R&D S ystems, Minneapolis, MN USA). […] After being detached b y tr ypsinization, cells were seeded in defined number as follows: 2.5 × 10^3 cells/well in 96-well plates for viability assessment and 2 × 10^4 cells/well in 24-well plates for flow cytometry. […]
(§3) Committee at IBISS (02- 09/1 6). Cells were counted and seeded in 96-well plates and incubat ed overnight. Before treatment, non- adherent cells were removed. Compounds 4a- c, 5 and 6 were dissolved in DMSO and stored at −20 °C for a m onth. Working solutions were freshl y prepared in 10% FCS-RPMI-1640. Controls were treated with culture medium containing the equivalent […]
(§4) 3.2. Cell viability tests.
(§5) The number of viable cel ls in culture was estimated by the MTT (3-(4,5- dimethylthiazol- 2-yl ) - 2,5- diphenyltetrazolium bromide) and CV (crystal violet) tests. Cells were incubated in the presence of compounds 4a- c, 5 and 6 for 48 h, then the viability was measured as described.4 […]
(§6) The results were ex pressed as a p er centage of a v alue obtained for the untr eated control cells that was arbitrarily set to be 100%. A non- linear regression analysis of obtained results was done b y using Gr aphPad Prism software to calculat e IC50 values. […]

The test system of series [2] is HCT116, human colon carcinoma. Nature of the series: CV (crystal violet) cell viability, HCT116. In kind it is cell-based. Particulars: for IC50: 48 h; for Selectivity index HCT116: IC50 macrophages / IC50 cancer. The procedure: as §1
(§7) Reagents were obtained from Sigma (St. Louis, MO) unless indicated otherwise. Annexin V - FITC (AnnV) was acquired from Biotium (Hayward, CA) and Apostat from R&D (R&D S ystems, Minneapolis, MN USA). […] After being detached b y tr ypsinization, cells were seeded in defined number as follows: 2.5 × 10^3 cells/well in 96-well plates for viability assessment and 2 × 10^4 cells/well in 24-well plates for flow cytometry. Peritoneal resident […]
(§8) for Biolo gical Research “Siniša Stanković” b y peritoneal lav age with an ice- cold phosphate buffer solution (PBS). The handling of animals and protocol for obtaining cells is in agreement with the rules of the European Union and approved by the Institutional Animal Care and Use Committee at IBISS (02- 09/1 6). Cells were counted and seeded in 96-well plates and incubat ed overnight. Before treatment, non- adherent cells were removed. Compounds 4a- c, 5 and 6 were dissolved in DMSO and stored at −20 °C for a m onth. Working solutions were freshl y prepared in 10% FCS-RPMI-1640. Controls were treated with culture medium containing the equivalent […]
as §4, §5, §6

In another series the target is T1, human recombinant COX-2 (Homo sapiens, UniProt P35354).
T1 construct: purchased Cayman Chemical Item No. 700100 (assay kit)
T1 sequence (P35354 18-604): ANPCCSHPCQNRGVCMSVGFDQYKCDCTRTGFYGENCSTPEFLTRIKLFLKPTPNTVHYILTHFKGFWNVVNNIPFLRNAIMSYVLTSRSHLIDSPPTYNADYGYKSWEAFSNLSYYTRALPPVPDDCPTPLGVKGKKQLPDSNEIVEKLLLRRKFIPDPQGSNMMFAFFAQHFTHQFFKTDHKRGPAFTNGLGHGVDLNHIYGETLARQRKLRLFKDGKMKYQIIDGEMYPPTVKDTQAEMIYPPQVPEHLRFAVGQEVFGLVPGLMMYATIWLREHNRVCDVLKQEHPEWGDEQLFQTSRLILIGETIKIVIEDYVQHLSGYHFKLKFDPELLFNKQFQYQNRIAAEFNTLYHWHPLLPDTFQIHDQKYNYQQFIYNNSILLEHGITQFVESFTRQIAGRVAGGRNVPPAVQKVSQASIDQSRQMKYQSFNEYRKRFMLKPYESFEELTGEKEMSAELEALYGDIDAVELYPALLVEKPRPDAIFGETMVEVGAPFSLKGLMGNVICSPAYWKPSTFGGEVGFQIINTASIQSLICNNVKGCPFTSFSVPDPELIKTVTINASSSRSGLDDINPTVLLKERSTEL
Nature of the series: COX Fluorescent Inhibitor Screening Assay, COX-2. Type of series: biochemical. The following applies: human recombinant COX-2, Cayman kit 700100. The procedure: The synthesized compounds were tested in vitro for their potential to inhibit ovine COX-1 and human recombinant COX-2.
*All compounds were measured with the Cytation 5 plate reader and the "COX Fluorescent Inhibitor […]
chemi cals, USA) " according to the manufacturer's
Error bars indicate standard error mean (SEM) obtained from two measurements at each concentration.
(1 picture or pasted object on this page, not shown here)

Series [3] has as its system SW620, human colon carcinoma. Nature of the series: MTT cell viability, SW620. Type of series: cell-based. The following applies: 48 h. The procedure:
as §1
(§9) Reagents were obtained from Sigma (St. Louis, MO) unless indicated otherwise. […]
(§10) S ystems, Minneapolis, MN USA). […] After being detached b y tr ypsinization, cells were seeded in defined number as follows: 2.5 × 10^3 cells/well in 96-well plates for viability assessment and 2 × 10^4 cells/well in 24-well plates for flow cytometry. […]
(§11) Before treatment, non- adherent cells were removed. Compounds 4a- c, 5 and 6 were dissolved in DMSO and stored at −20 °C for a m onth. Working solutions were freshl y prepared in 10% FCS-RPMI-1640. Controls were treated with culture medium containing the equivalent […]
as §4, §5, §6

The subject of series [4] is SW480, human colon carcinoma. Kind of series: MTT cell viability, SW480. Type of series: cell-based. The following applies: 48 h. How it is done: as §1, §9, §10, §11, §4, §5, §6
Series [5] concerns 518A2, human melanoma. Nature of the series: CV (crystal violet) cell viability, 518A2. Type of series: cell-based. Particulars: for IC50: 48 h; for Selectivity index 518A2: IC50 macrophages / IC50 cancer. How it is done: as §1, §7, §8, §4, §5, §6
The test system of series [6] is SW620, human colon carcinoma. Kind of series: CV (crystal violet) cell viability, SW620. The following applies: for IC50: 48 h; for Selectivity index SW620: IC50 macrophages / IC50 cancer. Type of series: cell-based. The procedure: as §1, §9
(§12) S ystems, Minneapolis, MN USA). […] After being detached b y tr ypsinization, cells were seeded in defined number as follows: 2.5 × 10^3 cells/well in 96-well plates for viability assessment and 2 × 10^4 cells/well in 24-well plates for flow cytometry. Peritoneal resident […]
as §8, §4, §5, §6

In series [7] the test system is SW480, human colon carcinoma. Nature of the series: CV (crystal violet) cell viability, SW480. In kind it is cell-based. The following applies: for IC50: 48 h; for Selectivity index SW480: IC50 macrophages / IC50 cancer. How it is done:
as §1, §9, §12, §8, §4, §5, §6

The subject of series [8] is 518A2, human melanoma. Nature of the series: MTT cell viability, 518A2. In kind it is cell-based. Particulars: 48 h. The procedure: as §1, §2, §3, §4, §5, §6
Series [9] concerns B16F10, mouse metastatic melanoma. Kind of series: MTT cell viability, B16F10. The following applies: 48 h. Type of series: cell-based. How it is done:
as §1, §2, §3, §4, §5, §6

Series [10] relates to peritoneal resident macrophages. Nature of the series: CV cytotoxicity for isolated macrophages. Type of series: cell-based, C57BL/6 mice. The following applies: crystal violet (CV) test. How it is done: as §7, §8, §4, §5, §6
14 Ligand molecules and one […]
protocol published earlier.16
Cell line Selectivity index

Five substances from article PMC7076013 (Scientific Reports, 2020) can be followed below.

As usually defined, the IC50 is the concentration that gives 50% inhibition.

Consider “R,S-7-(2-oxo-4-(4-sulfamoylphenyl)-2,5-dihydrofuran-3-yl)-7,8-dicarba-nido-dodeca-hydroundecaborate(–1) sodium [Compound 6]”, for which the IC50 in series [1] is over 50 µM; in series [2], over 50 µM; on human recombinant COX-2, 69.6 µM; in [3], over 50 µM; in series [4], over 50 µM; with 518A2, human melanoma [5] it was 49.7 ± 0.42 µM. The IC50 in series [6] was over 50 µM; in series [7], over 50 µM; in the series with 518A2, human melanoma [8], 36.9 ± 0.49 µM; in series [9], over 50 µM.

Consider “4-[4-(hydroxymethyl)phenyl]-3-(1,2-dicarba-closo-dodecaboranyl)furan-2(5H)-one [Compound 4c]”, for which the IC50 in series [1] was 28.4 ± 2.46 µM; in series [2], 19.2 ± 1.46 µM; at human recombinant COX-2, over 100 µM; in [3], 35.7 ± 0.85 µM; in series [4] it was 24.2 ± 1.05 µM; in series [10], 66.2 ± 1.91 µM. Further, the IC50 in the series on 518A2, human melanoma [5] was determined as 41.2 ± 2.12 µM; in series [6] it was 44.4 ± 1.77 µM; in series [7] it was 26.8 ± 2.81 µM; in the series on 518A2, human melanoma [8], 36.35 ± 0.21 µM; in series [9], 28 ± 2.62 µM. In series [2], the “Selectivity index HCT116” value is 3.4. Besides, the “Selectivity index 518A2” value in the series with 518A2, human melanoma [5] is listed as 1.6. Besides, the “Selectivity index SW620” value in series [6] came to 1.5. In addition, the “Selectivity index SW480” value in series [7] turned out to be 2.5.

As for “4-phenyl-3-(1,2-dicarba-closo-dodecaboranyl)furan-2(5 H)-one [Compound 4a]”, the concentration for half-maximal inhibition (IC50) in series [1] was 42.6 ± 3.17 µM; in [2] it was 12.8 ± 0.5 µM; on human recombinant COX-2 it was over 100 µM; in series [3] it was 24.7 ± 0.42 µM; in series [4], 22.8 ± 0.7 µM; in series [10] it was 48.8 ± 1.2 µM. Further, the concentration for half-maximal inhibition (IC50) with 518A2, human melanoma [5] came out at 21.4 ± 0.42 µM; in [6], 24.8 ± 0.35 µM; in [7], 19 ± 1.91 µM; in the series on 518A2, human melanoma [8] it was 18.9 ± 1.63 µM; in series [9], 24.3 ± 2.01 µM. In series [2], the “Selectivity index HCT116” value was 3.8. Besides, the “Selectivity index 518A2” value in the series with 518A2, human melanoma [5] is 2.3. For the same substance, in series [6], the “Selectivity index SW620” value amounted to 2.0. Also, the “Selectivity index SW480” value in series [7] was determined as 2.6.

Take “4-[4-(methylsulfonyl)phenyl]-3-(1,2-dicarba-closo-dodecaboranyl)furan-2(5H)-one [Compound 4b]”: the concentration for half-maximal inhibition (IC50) in [1] is 38.1 ± 0.9 µM; in series [2], 35.9 µM; at human recombinant COX-2 it was over 100 µM; in [3], 19.2 ± 0.78 µM; in series [4], 42.5 µM; in series [10], 65.7 ± 5.75 µM. The IC50 with 518A2, human melanoma [5] was 14.8 ± 0.92 µM; in series [6] it was 21.8 ± 0.64 µM; in series [7], 35.9 µM; in the series with 518A2, human melanoma [8], 13.8 ± 0.21 µM; in series [9] it was 27.3 ± 2.82 µM. In series [2], the “Selectivity index HCT116” value turned out to be 1.8. Moreover, the “Selectivity index 518A2” value in the series on 518A2, human melanoma [5] is recorded as 4.5. The “Selectivity index SW620” value in [6] was found to be 3.0. Also, the “Selectivity index SW480” value in series [7] was found to be 1.8.

On to “4-[4-(methylnitrooxy)phenyl]-3-(1,2-dicarba-closo-dodecaboranyl)furan-2(5 H)-one [Compound 5]”, for which the IC50 in [1] was 31.4 ± 3.27 µM; in [2], 9.95 ± 0.95 µM; on human recombinant COX-2, over 100 µM; in [3], 10.5 ± 0.14 µM; in series [4] it was 16.6 ± 1.01 µM; in [10], 37.1 ± 1.73 µM. In addition, the IC50 with 518A2, human melanoma [5] was found to be 5.5 ± 0.57 µM; in [6] it was 10.8 ± 0.21 µM; in [7] it was 8.6 ± 0.21 µM; with 518A2, human melanoma [8] it was 5.15 ± 0.64 µM; in series [9], 7.95 ± 3.06 µM. Also, the “Selectivity index HCT116” value in series [2] came to 3.7. The “Selectivity index 518A2” value in the series with 518A2, human melanoma [5] was determined as 6.7. In series [6], the “Selectivity index SW620” value came to 3.5. For the same substance, the “Selectivity index SW480” value in [7] was determined as 4.3.
